{
  "source": "ChEMBL document CHEMBL4190400",
  "about": "“Identification of Potent Ebola Virus Entry Inhibitors with Suitable Properties for in Vivo Studies” (J Med Chem, 2018)",
  "data": [
    {"tested_on": "Ebolavirus", "experiment": "Antiviral activity against VSV pseudotyped Ebolavirus expressing M-GFP infected in African green monkey Vero E6 cells assessed as inhibition of viral infection pre-incubated for 2 hrs before infection and measured after 8 to 12 hrs by fluorescence microscopic method", "format": "functional, Vero C1008", "settings": "Orthoebolavirus, Vero C1008", "units": {"IC50": "nM"}, "values": [
      {"smiles": "COC(=O)c1ccc(COc2ccc(C#N)cc2CN2CCN(C(=O)CNC(=O)CC34CC5CC(CC(C5)C3)C4)CC2)cc1", "IC50": 50},
      {"smiles": "CNS(=O)(=O)c1ccc(COc2ccccc2CN2CCN(C(=O)CNC(=O)CC34CC5CC(CC(C5)C3)C4)CC2)cc1", "IC50": 300},
      {"smiles": "O=C(CC12CC3CC(CC(C3)C1)C2)NCC(=O)N1CCN(Cc2cc(Cl)c(F)cc2F)CC1", "IC50": 370},
      {"smiles": "O=C(NCC(=O)N1CCN(Cc2cc(Cl)ccc2O)CC1)C1CC12CCC(F)(F)CC2", "note": "(racemic)", "IC50": 180},
      {"smiles": "COC(=O)c1ccc(COc2ccccc2CN2CCN(C(=O)CNC(=O)CC34CC5CC(C3)CC(C(=O)O)(C5)C4)CC2)cc1", "IC50": "> 2000"},
      {"smiles": "COC(=O)c1ccc(COc2ccc(OC)cc2CN2CCN(C(=O)CNC(=O)CC34CC5CC(CC(C5)C3)C4)CC2)cc1", "IC50": 1400},
      {"smiles": "COC(=O)c1ccc(COc2ccc(F)cc2CN2CCN(C(=O)CNC(=O)CC3CCC(F)(F)CC3)CC2)cc1", "IC50": 18},
      {"smiles": "O=C(CC12CC3CC(CC(C3)C1)C2)NCC(=O)N1CCN(Cc2cc(Br)ccc2O)CC1", "IC50": 500},
      {"smiles": "O=C(CC12CC3CC(CC(C3)C1)C2)NCC(=O)N1CCN(Cc2cc(Cl)ccc2C(F)(F)F)CC1", "IC50": "> 2000"},
      {"smiles": "O=C(CC12CC3CC(CC(C3)C1)C2)NCC(=O)N1CCN(Cc2cc(Cl)cc(F)c2F)CC1", "IC50": 670},
      {"smiles": "O=C(CC1CCC(F)(F)CC1)NCC(=O)N1CCN(Cc2cc(Cl)ccc2NC(=O)C2CC2)CC1", "IC50": 3500},
      {"smiles": "O=C(CC12CC3CC(CC(C3)C1)C2)NCC(=O)N1CCN(Cc2cc(Cl)ccc2F)CC1", "IC50": 360},
      {"smiles": "COC(=O)c1ccc(Oc2cc(Cl)cc(CN3CCN(C(=O)CNC(=O)CC45CC6CC(CC(C6)C4)C5)CC3)c2)cc1", "IC50": 16},
      {"smiles": "O=C(CC1CCC(F)(F)CC1)NCC(=O)N1CCN(Cc2cc(Cl)ccc2O)CC1", "IC50": 470},
      {"smiles": "NS(=O)(=O)c1ccc(COc2ccccc2CN2CCN(C(=O)CNC(=O)CC34CC5CC(CC(C5)C3)C4)CC2)cc1", "IC50": 350},
      {"smiles": "Nc1ccc(Cl)cc1CN1CCN(C(=O)CNC(=O)CC23CC4CC(CC(C4)C2)C3)CC1", "IC50": 90},
      {"smiles": "Nc1ccc(Cl)cc1C(=O)N1CCN(C(=O)CNC(=O)C2CC23CCC(F)(F)CC3)CC1", "note": "(racemic)", "IC50": "> 5000"},
      {"smiles": "COC(=O)c1ccc(COc2ccccc2CN2CCN(C(=O)CNC(=O)CC3(C)CCCCC3)CC2)cc1", "IC50": 80},
      {"smiles": "CC(=O)Nc1ccc(Cl)cc1CN1CCN(C(=O)CNC(=O)CC23CC4CC(CC(C4)C2)C3)CC1", "IC50": 950},
      {"smiles": "CN(C)S(=O)(=O)c1ccc(COc2ccccc2CN2CCN(C(=O)CNC(=O)CC34CC5CC(CC(C5)C3)C4)CC2)cc1", "IC50": 400},
      {"smiles": "CCC1(CC)CC1C(=O)NCC(=O)N1CCN(Cc2cc(Cl)ccc2N)CC1", "note": "(racemic)", "IC50": 160},
      {"smiles": "O=C(CC12CC3CC(CC(O)(C3)C1)C2)NCC(=O)N1CCN(Cc2ccccc2OCc2ccc(Br)cc2)CC1", "IC50": 500},
      {"smiles": "Nc1ccc(Cl)cc1CN1CCN(C(=O)CNC(=O)C2CC23CCC3)CC1", "note": "(racemic)", "IC50": 2500},
      {"smiles": "NC(=O)c1ccc(Cl)cc1CN1CCN(C(=O)CNC(=O)CC23CC4CC(CC(C4)C2)C3)CC1", "IC50": 1900},
      {"smiles": "O=C(CC12CC3CC(CC(C3)C1)C2)NCC(=O)N1CCN(Cc2cc(Cl)cc(Cl)c2Cl)CC1", "IC50": 430},
      {"smiles": "NC(=O)c1ccc(COc2ccccc2CN2CCN(C(=O)CNC(=O)CC34CC5CC(CC(C5)C3)C4)CC2)cc1", "IC50": 700},
      {"smiles": "O=C(CC12CC3CC(CC(Cl)(C3)C1)C2)NCC(=O)N1CCN(Cc2ccccc2OCc2ccc(Br)cc2)CC1", "IC50": 500},
      {"smiles": "COC(=O)c1ccc(COc2ccc(C)cc2CN2CCN(C(=O)CNC(=O)CC34CC5CC(CC(C5)C3)C4)CC2)cc1", "IC50": 12},
      {"smiles": "N#Cc1ccc(Br)cc1CN1CCN(C(=O)CNC(=O)CC23CC4CC(CC(C4)C2)C3)CC1", "IC50": 310},
      {"smiles": "O=C(CC12CC3CC(CC(C3)C1)C2)NCC(=O)N1CCN(Cc2cc(Cl)ccc2O)CC1", "IC50": 200},
      {"smiles": "O=C(CC12CC3CC(C1)CC(c1ccc(O)c([N+](=O)[O-])c1)(C3)C2)NCC(=O)N1CCN(Cc2ccccc2OCc2ccc(Br)cc2)CC1", "IC50": 600},
      {"smiles": "CC1(CC(=O)NCC(=O)N2CCN(Cc3ccccc3OCc3ccc(Br)cc3)CC2)CCCCC1", "IC50": 520},
      {"smiles": "COC(=O)c1ccc(COc2ccc(Cl)cc2CN2CCN(C(=O)CNC(=O)CC34CC5CC(CC(C5)C3)C4)CC2)cc1", "IC50": 1.1}
    ]}
  ]
}
